This is an account of results in PMC10997566, “Kinetic profiling of novel spirobenzo-oxazinepiperidinone derivatives as equilibrative nucleoside transporter 1 inhibitors” (Purinergic Signalling, 2023).

Assay [1] concerns the target T1, hENT1 (Homo sapiens, UniProt Q99808).
T1 sequence (Q99808 1-456): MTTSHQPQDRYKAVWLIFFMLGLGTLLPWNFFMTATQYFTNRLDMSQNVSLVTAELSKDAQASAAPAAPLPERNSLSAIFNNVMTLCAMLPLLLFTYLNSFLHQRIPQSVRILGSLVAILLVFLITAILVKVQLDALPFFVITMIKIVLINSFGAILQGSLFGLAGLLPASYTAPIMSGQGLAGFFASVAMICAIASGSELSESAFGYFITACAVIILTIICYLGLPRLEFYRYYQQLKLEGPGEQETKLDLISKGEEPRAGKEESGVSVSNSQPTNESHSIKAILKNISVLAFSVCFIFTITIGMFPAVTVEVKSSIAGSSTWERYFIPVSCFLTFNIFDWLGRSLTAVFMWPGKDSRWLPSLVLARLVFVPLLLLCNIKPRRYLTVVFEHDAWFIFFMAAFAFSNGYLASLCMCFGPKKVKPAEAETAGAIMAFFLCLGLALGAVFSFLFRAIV
Description: biochemical.

For assay [2], the target named is T1, hENT1. Description: [3H]NBTI competition association assay (Motulsky and Mahan). The following applies: 10 °C; for RT (residence time): RT = 1/koff; for koff / kon: human erythrocyte membranes, competitor at IC50 concentration, mean ± SEM.
For assay [3], the target named is T1, hENT1. Briefly: [3H]NBTI radioligand displacement assay. To be noted: Ki relative to compound 1.
Assay [4] has as its target T1, hENT1. Briefly: Washout assay with [3H]NBTI binding after four wash cycles. Also noted: For our experiments, we used human erythrocytes as a source of hENT1; from tissue; host or cells: human erythrocytes (membrane preparation). To be noted: 10 °C; for inhibitor washed away (recovery of [3H]NBTI binding): 1 h pre-incubation at 10 × IC50, four wash and centrifugation cycles, erythrocyte membranes. The method, then:
Centrifugation at 13,200 rpm (16,100 × g) at 4 °C for 5 min separated pellet and supernatant, with the latter containing the unbound ligand being removed. Pellets were resuspended in 1 mL of assay buffer, and samples were incubated for 10 min at 10 °C. In total, four centrifugation-washing cycles were performed. […] Rapid filtration through GF/C filters using a Brandel harvester (Brandel, Gaithersburg, MD) terminated the experiment. Filters were washed three times using ice-cold wash buffer and the samples were counted by scintillation spectrometry using a Tri-carb 2900 TR liquid scintillation counter (Perkin Elmer, Boston, MA).
A washout assay was used to validate the findings in the competition association assays (Fig. 2C). […] The unwashed condition was also similarly assessed, but no wash and centrifugation cycle occurred before the determination of radioligand binding. The results of both washed and unwashed samples were compared to the control condition without any competitor (100% washed and unwashed radioligand binding, respectively).

For assay [5], the target named is T1, hENT1. Also noted: For our experiments, we used human erythrocytes as a source of hENT1; from tissue; host or cells: human erythrocytes (membrane preparation); method as in PMID 31830468. To be noted: earlier study, same experimental protocol; cited from earlier work.

Usually Ki stands for the dissociation constant of the complex between target and ligand, obtained from inhibition or displacement. The molecule `Nc1cc2c(cc1Cl)C(=O)NC1(CCN(CCNC(=O)c3c(Cl)cccc3Cl)CC1)O2` [Compound 1] gave a Ki at hENT1 [1] of 145 nM.
A word on the koff: it is the first-order rate constant of dissociation. The low end stands for slow dissociation, the high end for fast dissociation. One may read the kon as the rate constant with which the complex forms. Low readings indicate slow association, high ones fast association. Regarding `CNc1cc2c(cc1Cl)C(=O)NC1(CCN(CCNC(=O)c3c(Cl)cccc3Cl)CC1)O2` [Compound 2], on hENT1 [2], the “RT (residence time)” value was determined as 4.9 ± 1.1 min, the koff amounted to 0.203 ± 0.047 min⁻¹ and the kon worked out at 0.123 ± 0.029 nM⁻¹ min⁻¹. The “increase in affinity compared to 1” value at hENT1 [3] is “approximately 30 fold”.
For `CN(C)c1cc2c(cc1Cl)C(=O)NC1(CCN(CCNC(=O)c3c(Cl)cccc3Cl)CC1)O2` [Compound 3] the same measures were 6.6 ± 0.9 min, 0.151 ± 0.020 min⁻¹, 0.158 ± 0.048 nM⁻¹ min⁻¹ and “approximately 30 fold”.
For `CC(=O)N1CCC(Nc2cc3c(cc2Cl)C(=O)NC2(CCN(CCNC(=O)c4c(Cl)cccc4Cl)CC2)O3)CC1` [Compound 18], on hENT1 [2], the “RT (residence time)” value was 26 ± 6.5 min, the koff amounted to 0.038 ± 0.009 min⁻¹ and the kon worked out at 0.026 ± 0.003 nM⁻¹ min⁻¹. The “inhibitor washed away (recovery of [3H]NBTI binding)” value (“inhibitor washed away” for short) on hENT1 [4] is listed as “approximately 60%”.
For `O=C1NC2(CCN(CCNC(=O)c3c(Cl)cccc3Cl)CC2)Oc2cc(O)c(Cl)cc21` [Compound 20], on hENT1 [1], the Ki was 1040 nM.
Regarding `CC(C)Oc1cc2c(cc1Cl)C(=O)NC1(CCN(CCNC(=O)c3c(Cl)cccc3Cl)CC1)O2` [Compound 21], at hENT1 [2], the “RT (residence time)” value was determined as 18 ± 3.6 min, the koff was 0.056 ± 0.011 min⁻¹ and the kon was 0.130 ± 0.051 nM⁻¹ min⁻¹.
As to `O=C1NC2(CCN(CCNC(=O)c3c(Cl)cccc3Cl)CC2)Oc2cc(OC3CCCC3)c(Cl)cc21` [Compound 22], on hENT1 [2], the “RT (residence time)” value stood at 35 ± 7.6 min, the koff was determined as 0.029 ± 0.006 min⁻¹ and the kon is 0.029 ± 0.007 nM⁻¹ min⁻¹.
Turning to `O=C1NC2(CCN(CCNC(=O)c3c(Cl)cccc3Cl)CC2)Oc2cc(OC3CCNCC3)c(Cl)cc21` [Compound 23], at hENT1 [2], the koff is 0.204 ± 0.051 min⁻¹ and the kon was found to be 0.122 ± 0.040 nM⁻¹ min⁻¹. Further, the “inhibitor washed away” value on hENT1 [4] is recorded as “completely washed away”.
Regarding `CN1CCC(Oc2cc3c(cc2Cl)C(=O)NC2(CCN(CCNC(=O)c4c(Cl)cccc4Cl)CC2)O3)CC1` [Compound 24], at hENT1 [2], the koff came to 0.414 ± 0.085 min⁻¹ and the kon is 0.127 ± 0.020 nM⁻¹ min⁻¹.
Regarding `CC(=O)N1CCC(Oc2cc3c(cc2Cl)C(=O)NC2(CCN(CCNC(=O)c4c(Cl)cccc4Cl)CC2)O3)CC1` [Compound 25], on hENT1 [2], the “RT (residence time)” value is given as 72 ± 14 min, the koff was found to be 0.014 ± 0.003 min⁻¹ and the kon is 0.032 ± 0.004 nM⁻¹ min⁻¹. For the same molecule, the “inhibitor washed away” value at hENT1 [4] amounted to 37%. Besides, the “inhibitor still bound to the target” value on hENT1 [4] (after four extensive washing steps, 10 × IC50 pre-incubation) was “more than 60%”.
`CC(=O)N1CCC(Oc2cc3c(cc2Cl)C(=O)CC2(CCN(CCNC(=O)c4c(Cl)cccc4Cl)CC2)O3)CC1` [Compound 26]: on hENT1 [2], the “RT (residence time)” value came to 66 ± 20 min, the koff stood at 0.015 ± 0.005 min⁻¹ and the kon was determined as 0.043 ± 0.008 nM⁻¹ min⁻¹.
`CC(=O)N1CCC(Oc2cc3c(cc2Cl)C(O)CC2(CCN(CCNC(=O)c4c(Cl)cccc4Cl)CC2)O3)CC1` (centres unmarked) [Compound 27]: on hENT1 [2], the “RT (residence time)” value is recorded as 79 ± 20 min, the koff was 0.013 ± 0.003 min⁻¹ and the kon came to 0.054 ± 0.015 nM⁻¹ min⁻¹.
In the case of `CC(=O)N1CCC(Oc2cc3c(cc2Cl)C=CC2(CCN(CCNC(=O)c4c(Cl)cccc4Cl)CC2)O3)CC1` [Compound 28], at hENT1 [2], the “RT (residence time)” value is recorded as 87 ± 8.7 min, the koff came out at 0.011 ± 0.001 min⁻¹ and the kon came to 0.097 ± 0.007 nM⁻¹ min⁻¹.
For the molecule `CC(=O)N1CCC(Oc2cc3c(cc2Cl)CCC2(CCN(CCNC(=O)c4c(Cl)cccc4Cl)CC2)O3)CC1` [Compound 29], at hENT1 [2], the “RT (residence time)” value came out at 52 ± 20 min, the koff amounted to 0.019 ± 0.007 min⁻¹ and the kon was 0.095 ± 0.020 nM⁻¹ min⁻¹.
For `NC(=O)C1CN(CCCCC(c2ccc(F)cc2)c2ccc(F)cc2)CCN1CC(=O)Nc1c(Cl)cc(N)cc1Cl` (centres unmarked) [Draflazine], the RT at hENT1 [5] is 88 min.
On to `COc1cc(C(=O)OCCCN2CCCN(CCCOC(=O)c3cc(OC)c(OC)c(OC)c3)CC2)cc(OC)c1OC` [dilazep], for which, at hENT1 [5], the RT is given as 44 min.
